Measurements as given in patent US7230010B2, “1,2,4-triazole derivative, method for preparing the same, and pharmaceutical composition containing the same” (CJ Corp., priority 2002, dated 2007).

Experiments:
[1] = biological target: T1, COX-1 (Homo sapiens, UniProt P23219); experiment: Assay for the COX-1 inhibitory activity using U-937; type: cell-based; details: 1 μM test compound; PGE2 inhibition in U-937 human lymphoma cells vs DMSO control; read-out: Cyclooxygenase (COX) Inhibition (%) COX-1 (1 μM)
T1 construct: host or cells: U-937 human lymphoma cells
T1 sequence (P23219 24-599): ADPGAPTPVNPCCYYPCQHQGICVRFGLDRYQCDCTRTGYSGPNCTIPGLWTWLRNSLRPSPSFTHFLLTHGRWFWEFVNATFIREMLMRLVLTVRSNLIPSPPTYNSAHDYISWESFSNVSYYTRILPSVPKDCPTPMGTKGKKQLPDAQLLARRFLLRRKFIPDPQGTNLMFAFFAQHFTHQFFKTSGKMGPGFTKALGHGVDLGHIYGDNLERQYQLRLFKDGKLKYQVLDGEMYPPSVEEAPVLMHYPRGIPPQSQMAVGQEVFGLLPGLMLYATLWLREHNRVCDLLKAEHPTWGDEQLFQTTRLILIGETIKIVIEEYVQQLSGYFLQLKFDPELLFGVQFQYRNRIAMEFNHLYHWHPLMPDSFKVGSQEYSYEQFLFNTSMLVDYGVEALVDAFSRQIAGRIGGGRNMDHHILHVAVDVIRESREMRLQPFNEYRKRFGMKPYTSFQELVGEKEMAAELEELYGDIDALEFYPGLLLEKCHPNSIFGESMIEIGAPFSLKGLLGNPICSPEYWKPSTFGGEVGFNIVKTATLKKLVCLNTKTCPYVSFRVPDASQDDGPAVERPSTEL
Procedure: The collected cells were diluted with HBSS (x1, Hank's balanced salt solution) to a concentration of 1×10^6 cells/ml. 1 ml of the dilute cell solution was placed into each well of 12-well plates. 5 μl of 1 μM solution of a test compound in DMSO and 5 μl of DMSO as a control were added to the wells. The wells were incubated in CO2 incubator at 37° C. for 15 minutes. Separately, 10 mM stock solution of arachidonic acid in ethanol was diluted ten times in ethanol to prepare 1 mM solution of arachidonic acid. Arachidonic acid acts as a substrate. 10 μl of the 1 mM solution of arachidonic acid was added to each well and incubated at CO2 incubator at 37° C. for 30 minutes. The cell solution of each well was placed in a centrifuge test tube and centrifuged at 10,000 rpm at 4° C. for 5 minutes. The concentration of PGE2 in the collected cells and the supernatant was quantified by means of a monoclonal kit (Cayman Chemicals). The percentages of PGE2 inhibition in a group of the test compound-treated cells in relation to a group of the DMSO-treated cells were calculated. Based on the calculated values, the COX-1 inhibitory activities were evaluated.
(§1) % Inhibition=(concentration of PGE2 in test compound-untreated sample−concentration of PGE2 in test compound-treated sample)/(concentration of PGE2 in test compound-untreated sample)×100

[2] = biological target: T2, COX-2 (Mus musculus, UniProt Q05769); experiment: Assay for the COX-2 inhibitory activity using RAW 264.7 cell line; type: cell-based; details: RAW264.7; 10 nM test compound; PGE2 in RAW 264.7 cells treated with interferon γ and LPS, 18 hours; read-out: Cyclooxygenase (COX) Inhibition (%) COX-2 (10 nM)
T2 construct: host or cells: RAW 264.7 cells, aspirin-pretreated, induced with interferon γ and LPS
T2 sequence (Q05769 18-604): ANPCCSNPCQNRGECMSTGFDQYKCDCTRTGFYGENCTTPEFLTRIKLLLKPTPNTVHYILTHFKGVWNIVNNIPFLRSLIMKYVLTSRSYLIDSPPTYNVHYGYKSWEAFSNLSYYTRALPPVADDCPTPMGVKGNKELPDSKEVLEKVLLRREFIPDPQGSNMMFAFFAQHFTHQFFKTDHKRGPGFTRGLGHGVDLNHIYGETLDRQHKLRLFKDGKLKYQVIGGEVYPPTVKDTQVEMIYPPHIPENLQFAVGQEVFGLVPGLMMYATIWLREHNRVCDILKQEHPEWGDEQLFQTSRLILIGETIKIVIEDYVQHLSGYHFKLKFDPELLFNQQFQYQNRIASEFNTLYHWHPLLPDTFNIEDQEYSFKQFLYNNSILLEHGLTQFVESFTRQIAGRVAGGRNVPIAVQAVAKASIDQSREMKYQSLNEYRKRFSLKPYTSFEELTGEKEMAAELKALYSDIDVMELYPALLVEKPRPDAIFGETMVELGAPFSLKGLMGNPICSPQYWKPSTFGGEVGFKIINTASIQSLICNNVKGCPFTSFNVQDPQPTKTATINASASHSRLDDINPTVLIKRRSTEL
Procedure: Each well was treated with 250 μM of aspirin and incubated at 37° C. for 2 hours. After the culture media were replaced with new culture media, the new culture media were treated with a test compound (10 nM) and incubated for 30 minutes. Then, each well was treated with interferon γ (100 units/ml) and lipopolysaccharide (LPS, 100 ng/ml) and incubated for 18 hours. The culture media were transferred to other test tubes. The concentration of PGE2 was quantified by means of the EIA kit (Cayman Chemicals).
as §1

Structure (SMILES) | inhibition at 1 µM [1] | inhibition at 0.01 µM [2]
CS(=O)(=O)c1ccc(-n2nc(C(F)(F)F)nc2-c2cc3ccccc3o2)cc1 [Example 11, 5-(benzofuran-2-yl)-1-(4-methylsulfonylphenyl)-3-trifluoromethyl-1H-1,2,4-triazole] | 24.3% | 10.6%
Cn1c(-c2nc(C(F)(F)F)nn2-c2ccc(S(C)(=O)=O)cc2)cc2ccccc21 [Example 13, 1-methyl-2-[2-(4-methylsulfonylphenyl)-5-trifluoromethyl-2H-1,2,4-triazole-3-yl]-1H-indole] | 9.8% | 25.7%
Cn1cc(-c2nc(C(F)(F)F)nn2-c2ccc(S(C)(=O)=O)cc2)c2ccccc21 [Example 14, 1-methyl-3-[2-(4-methylsulfonylphenyl)-5-trifluoromethyl-2H-1,2,4-triazole-3-yl]-1H-indole] | 21.3% | 6.02%
NS(=O)(=O)c1ccc(-n2nc(C(F)(F)F)nc2-c2ccc3ccccc3c2)cc1 [Example 16, 4-[5-(naphthalene-2-yl)-3-trifluoromethyl-1,2,4-triazole-1-yl]benzenesulfonamide] | 32.9% | 16.3%
CS(=O)(=O)c1ccc(-n2nc(C(F)(F)F)nc2-c2ccc3ccccc3c2)nc1 [Example 17, 5-methanesulfonyl-2-[5-(naphthalene-2-yl)-3-trifluoromethyl-1,2,4-triazole-1-yl]pyridine] | 10.6% | 23.3%

The remaining lines, values ahead:

inhibition at 1 µM [1] | inhibition at 0.01 µM [2] | Structure (SMILES)
26.2% | 12.3% | CS(=O)(=O)c1ccc(-n2nc(C(F)(F)F)nc2-c2ccc3ccccc3c2)cc1 [Example 10, 1-(4-methylsulfonylphenyl)-5-(naphthalene-2-yl)-3-trifluoromethyl-1H-1,2,4-triazole]
26.3% | 5.67% | CS(=O)(=O)c1ccc(-n2nc(C(F)(F)F)nc2-c2cc3ccccc3[nH]2)cc1 [Example 12, 2-[2-(4-methylsulfonylphenyl)-5-trifluoromethyl-2H-1,2,4-triazole-3-yl]-1H-indole]
22.3% | 5.42% | CS(=O)(=O)c1ccc(-n2nc(C(F)(F)F)nc2-c2ccc3ccccc3n2)cc1 [Example 15, 2-[2-(4-methylsulfonylphenyl)-5-trifluoromethyl-2H-1,2,4-triazole-3-yl]quinoline]
